Test results published in patent US20190276793A1, “Methods and Apparatus for Regulation of Gene Expression Across a Large-Scale Solid Structure” (Massachusetts Institute of Technology, priority 2018, published 2019).

Tested on: E. coli strain IPTG/GFP
Assay: GFP induction by cured chemical signaling resin in the IPTG/GFP reporter strain
Assay type: cell-based
Settings: IPTG 2.0 M, after UV-curing
Text: In some use cases, this prototype facilitates fluorometric assays of gene expression as follows: Strains with fluorescent protein outputs are constructed. The strains IPTG/GFP, AHL/GFP, and RHA/GFP each express a green fluorescent protein (GFP) under the control of promoters LacI, LuxR, and RhaBAD when induced by the chemicals IPTG, N-acyl homoserine lactone (AHL), Rhamnose (RHA), respectively. For orthogonal AHL and IPTG patterning, the strain AHL/RFP is also cloned to produce a differentiable red fluorescent protein (RFP) under AHL-inducible control. Also, gene constructs using combinatorial promoters (where IPTG.AHL/GFP equated to NAND logic function and IPTG.AHL/GFP equated to AND logic function) were cloned for HLM objects performing spatial patterning from two-input cell logic. These transcriptional regulators may be utilized for multi-signal pattern generation.
In a test of this prototype, different photopolymer resins (with embedded chemical signaling molecules) were created by mixing incremental concentrations and ratios of DMSO-solubilized inducer, IPTG, and uncured resin in low light. To rapidly manufacture test pieces, a VeroClear™ RGD810 tray was printed with 3×3 circular wells (10 mm diameter, 3 mm depth). […]

`CC(C)S[C@@H]1O[C@H](CO)[C@H](O)[C@H](O)[C@H]1O` [IPTG, Isopropyl β-D-1-thiogalactopyranoside] was tested, and the “induction in E. coli strain IPTG/GFP” value was “robust induction”.
